Experimental data reported in patent US20200030214A1, “USE OF COMPATIBLE SOLUTES” (MERCK PATENT GMBH, priority 2017, published 2020).

Key:
Assay type in all cases: cell-based
[1] = system: HaCaT keratinocytes; assay: Protective effect against UVA induced carbonylated protein formation (SDS-PAGE, fluorescent labelling); conditions: 24 h, UVA 365 nm 33 J/cm^2, in comparison to the control, FIGS. 3 and 4
Method: (§1) HaCaT keratinocytes are cultured in calcium-free DMEM (Dulbecco's Modified Eagle Medium), with 10% SVF, at 37° C. and humid atmosphere, supplemented with 5% CO2 for 24 h.
(§2) After this initial time period the cell cultures are treated with the respective active compound. A non treated sample is used as reference.
(§3) The following active compounds are used in the above method: • Ectoin (Merck KGaA, Germany) 0.5% w/v dissolved in culture medium. • Ectoin (Merck KGaA, Germany) 0.3% w/v dissolved in culture medium • N-acetyl-cysteine (NAC) (Sigma-Aldrich) 2.5 mM, as internal reference
(§4) After a time period of 24 h, stress is induced in the samples by treatment with blue light irradiation (460 nm) or UVA irradiation (365 nm). In addition, samples not treated with an active compound are left non-irradiated for comparison.
UVA irradiation (365 nm): • Source: LED • Irradiance: 50 mW/cm^2 • Dose: 33 J/cm^2 (i.e. less intense than 15 minutes at noon in the middle European sunlight) • Irradiation time: 11 min […]
(§5) In situ detection of carbonylated proteins: After thawing of the samples, protein extraction from cells is performed using OxiProteomics' validated protocols. Extracted proteins are solubilized and quantified by the Bradford method (Bradford, 1976, Anal. Biochem., 72, 248) using calibrated BSA as standard. […] Quantification is obtained from each sample, both for carbonylated and total proteins.

[2] = system: HaCaT keratinocytes; assay: Effect of ectoin on suppression of intracellular carbonylated protein accumulation induced by oleic acid; conditions: 100 mM ectoin pre-treatment for 24 h, then 200 μM oleic acid for 48 h; FIG. 2
Method: The effect of ectoin on carbonylated protein accumulation is analysed. In order to induce Hsp70, HaCaT keratinocytes are cultured with 100 mM ectoin (Merck KGaA, Germany) for 24 h. Cells are cultured with oleic acid for further 48 hours, and CP levels are determined. In this examination, 200 μM oleic acid is used to evaluate the effect of ectoin on CP accumulation in the cells. HaCaT keratinocytes are cultured in DMEM containing 5% FBS and 100 mM ectoin for 24 h. Cells are further cultured with DMEM containing 200 μM oleic acid for 48 h. After fixing with cold methanol for 5 min, cells are reacted with 20 μmol/L FTSC in 0.1 mol/L MES-Na buffer (pH 5.5) at room temperature for 1 h. Fluorescence intensities derived from CPs are measured at Ex/Em 492 nm/516 nm with a fluorescence microplate reader, TECAN SPARK 10M (Mannedorf, Switzerland). Numbers of cells are determined by measuring fluorescence intensities of nuclei stained with Hoechst 33342. Intracellular CP levels are calculated as fluorescence intensity of FTSC per fluorescence intensities of nuclei.

[3] = system: HaCaT keratinocytes; assay: Protective effect against blue light induced carbonylated protein formation (SDS-PAGE, fluorescent labelling); conditions: 24 h, blue light 460 nm 35 J/cm^2, FIGS. 5 and 6
Method: as §1, §2, §3, §4
Blue light irradiation (460 nm): • Source: LED • Irradiance: 53 mW/cm^2 • Dose: 35 J/cm^2 (corresponding to the emission of a computer screen during 8 h/d for 3 days) • Irradiation time: 11 min […]
as §5

[4] = system: HaCaT keratinocytes; assay: Intracellular carbonylated protein (CP) levels in HaCaT keratinocytes cultured with oleic acid (FTSC fluorescence); conditions: HaCaT keratinocytes cultured in DMEM containing oleic acid at several concentrations for 48 h; FIG. 1
Method: Protein carbonylation is initiated by reactive aldehyde compounds which are synthesized by lipid peroxidation. Since skin pores are always immersed by sebum, oleic acid which is one of the sebum components, is used as a source of intracellular synthesis of reactive aldehyde compounds to establish cells with accumulated carbonylated proteins.
Cell culture: HaCaT keratinocytes are cultured in Dulbeco's modified Eagle's medium (DMEM) (Nissui, Tokyo, Japan) supplemented with 5% fetal bovine serum (FBS) (Thermofisher, Waltham, Calif., USA) at 37° C. in 5% CO2 and 95% air.
For this example HaCaT keratinocytes are cultured in DMEM containing oleic acid at several concentrations for 48 h. After fixing with cold methanol for 5 min, cells are reacted with 20 μmol/L FTSC (Sigma-Aldrich, St. Louis, Mo., USA in 0.1 mol/L MES-Na buffer (pH 5.5) at room temperature for 1 h. Fluorescence intensities derived from CPs are measured at Ex/Em 492 nm/516 nm with a fluorescence microplate reader, TECAN SPARK 10M (Mannedorf, Switzerland). Numbers of cells are determined by measuring fluorescence intensities of nuclei stained with Hoechst 33342 (Sigma-Aldrich (St. Louis, Mo., USA)). Intracellular CP levels are calculated as fluorescence intensity of FTSC per fluorescence intensities of nuclei.

CC1=N[C@H](C(=O)O)CCN1 [ectoin, (S)-1,4,5,6-tetrahydro-2-methyl-4-pyrimidincarboxylic acid]
protective effect against UVA induced protein carbonylation ([1]; ectoin 0.3% w/v): significant protective effect | protective effect against UVA induced protein carbonylation ([1]; ectoin 0.5% w/v): No significant comparison | CP accumulation through oleic acid [2]: suppression of CP accumulation | protective effect against blue light induced protein carbonylation ([3]; ectoin 0.3% w/v): significant protective effect | protective effect against blue light induced protein carbonylation ([3]; ectoin 0.5% w/v): significant protective effect

CCCCCCCC/C=C\CCCCCCCC(=O)O [oleic acid]
level of intracellular CPs [4]: higher level of intracellular CPs
